A short description of series [1]: Plasma glucose, dose response (Example 9). Format: in vivo, mice. The protocol: (§1) Another group received subcutaneous injections of control oligonucleotide ISIS 141923 at a dose of 50 mg/kg/week for 6 weeks. One group of mice received subcutaneous injections of PBS for 6 weeks. The PBS-injected group served as the control group to which treatment groups were compared.
Plasma glucose values were determined using a Beckman Glucose Analyzer II (Beckman Coulter) by a glucose oxidase method (Lott, J. A. et al., Clin. Chem. 21: 1754-1760, 1975).

Series [2] can be described thus: Liver function, plasma ALT and AST, dose response (Example 9). Format: in vivo, mice. Here is the method:
as §1

The subject of series [3] is human CETP mRNA. The experiment in a line: Liver CETP mRNA in huCETP transgenic mice, normal or cholesterol-enriched chow (Example 6). Particulars: 50 mg/kg s.c. twice per week for 6 weeks, relative to PBS control. Format: in vivo. The protocol: Male huCETP transgenic mice were maintained on a 12-hour light/dark cycle. One group of mice was fed ad libitum normal Purina mouse chow and a second group was fed 0.5% cholesterol-enriched chow (Harlan Teklad TD.97234, Harlan Laboratories, Indianapolis, Ind.). Animals were acclimated for at least 7 days in the research facility before initiation of the experiment. Antisense oligonucleotides (ASOs) were prepared in buffered saline (PBS) and sterilized by filtering through a 0.2 micron filter. Oligonucleotides were dissolved in 0.9% PBS for injection.
The normal chow-fed mice were divided into three treatment groups. The cholesterol-enriched chow-fed mice were divided into three treatment groups. […] One chow-fed group and one cholesterol-enriched chow-fed group received subcutaneous injections of saline twice weekly for 6 weeks. The saline-injected groups served as the control groups to which the corresponding oligonucleotide-treated groups were compared.
Twenty four hours after the final dose, the animals were sacrificed and liver tissue was isolated. Liver RNA was isolated for real-time PCR analysis of CETP. The primer probe set hCETP was used to measure CETP levels. As presented in Table 16, treatment with antisense oligonucleotides reduced CETP mRNA expression. The RNA expression levels were normalized to murine Cyclophilin. The results are expressed as percent inhibition of CETP mRNA, relative to the PBS control. There was no difference in inhibition of CETP mRNA levels in normal chow-fed and cholesterol-enriched chow fed mice.

For series [4], the system named is human CETP mRNA. The experiment in a line: Antisense inhibition of human CETP mRNA in SW872 liposarcoma cells (Example 1). The format is cell-based. Particulars: 150 nM antisense oligonucleotide, lipofectin, ~24 hours, relative to untreated control cells. The gist of the method: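 SW872 cells transfected (lipofectin) with 150 nM 5-10-5 MOE gapmer (phosphorothioate, 5-methylcytosine). After about 24 h, CETP mRNA measured by qRT-PCR, normalized to GAPDH; values are % inhibition versus untreated cells.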

e = 2'-O-(2-methoxyethyl) (MOE); d = 2'-deoxy (DNA)

With “ISIS 141923: CCTTCCCTGAAGGTTCCTCC, 5-10-5 MOE gapmer, a control oligonucleotide which has no known murine target (sugars from the 5' end e5 d10 e5, backbone and methylation of C not given here) [reference compound]”, the Glucose levels in series [1] (50 mg/kg/wk, Week 0) was determined as 311 mg/dL; in series [1] (50 mg/kg/wk, Week 3), 256 mg/dL; in series [1] (50 mg/kg/wk, Week 6), 305 mg/dL. The ALT levels in series [2] (50 mg/kg/wk, Week 0) is recorded as 27 IU/L; in series [2] (50 mg/kg/wk, Week 3), 27 IU/L; in series [2] (50 mg/kg/wk, Week 6), 45 IU/L. The AST levels is 26 IU/L in series [2] (50 mg/kg/wk, Week 0); 46 IU/L in series [2] (50 mg/kg/wk, Week 3); 107 IU/L in series [2] (50 mg/kg/wk, Week 6).
Broadly, the % inhibition is the percentage by which the read-out fell short of the control. Read a high % inhibition as strong suppression. As for “ISIS 349511: 5-10-5 MOE gapmer CCCGACCTCCTTGGAGACTT (sugars from the 5' end e5 d10 e5, backbone and methylation of C not given here)”, the “Percent inhibition of liver CETP mRNA expression” value turned out to be 88% in series [3] (Cholesterol chow) and 89% in series [3] (Normal chow). Besides, in series [4], the “% inhibition” value is 66%.
For the substance “ISIS 349517: 5-10-5 MOE gapmer CAGCACTTTAATGCCAGTGG (sugars from the 5' end e5 d10 e5, backbone and methylation of C not given here)”, the Glucose levels is 375 mg/dL in series [1] (1.5 mg/kg/wk, Week 0); 288 mg/dL in series [1] (1.5 mg/kg/wk, Week 3); 348 mg/dL in series [1] (1.5 mg/kg/wk, Week 6); 354 mg/dL in series [1] (5 mg/kg/wk, Week 0); 287 mg/dL in series [1] (5 mg/kg/wk, Week 3); 346 mg/dL in series [1] (5 mg/kg/wk, Week 6). Moreover, the Glucose levels in series [1] (15 mg/kg/wk, Week 0) came out at 339 mg/dL; in series [1] (15 mg/kg/wk, Week 3), 271 mg/dL; in series [1] (15 mg/kg/wk, Week 6), 329 mg/dL; in series [1] (50 mg/kg/wk, Week 0), 339 mg/dL; in series [1] (50 mg/kg/wk, Week 3) it was 269 mg/dL; in series [1] (50 mg/kg/wk, Week 6) it was 255 mg/dL. The ALT levels is reported as 20 IU/L in series [2] (1.5 mg/kg/wk, Week 0); 18 IU/L in series [2] (1.5 mg/kg/wk, Week 3); 54 IU/L in series [2] (1.5 mg/kg/wk, Week 6); 26 IU/L in series [2] (5 mg/kg/wk, Week 0); 25 IU/L in series [2] (5 mg/kg/wk, Week 3); 49 IU/L in series [2] (5 mg/kg/wk, Week 6). Further, the ALT levels in series [2] (15 mg/kg/wk, Week 0) is 24 IU/L; in series [2] (15 mg/kg/wk, Week 3), 27 IU/L; in series [2] (15 mg/kg/wk, Week 6) it was 36 IU/L; in series [2] (50 mg/kg/wk, Week 0), 27 IU/L; in series [2] (50 mg/kg/wk, Week 3), 33 IU/L; in series [2] (50 mg/kg/wk, Week 6), 76 IU/L. Also, the AST levels worked out at 38 IU/L in series [2] (1.5 mg/kg/wk, Week 0); 43 IU/L in series [2] (1.5 mg/kg/wk, Week 3); 133 IU/L in series [2] (1.5 mg/kg/wk, Week 6); 40 IU/L in series [2] (5 mg/kg/wk, Week 0); 46 IU/L in series [2] (5 mg/kg/wk, Week 3); 246 IU/L in series [2] (5 mg/kg/wk, Week 6). In addition, the AST levels in series [2] (15 mg/kg/wk, Week 0) is on record as 24 IU/L; in series [2] (15 mg/kg/wk, Week 3), 47 IU/L; in series [2] (15 mg/kg/wk, Week 6) it was 70 IU/L; in series [2] (50 mg/kg/wk, Week 0) it was 27 IU/L; in series [2] (50 mg/kg/wk, Week 3) it was 52 IU/L; in series [2] (50 mg/kg/wk, Week 6) it was 171 IU/L. Moreover, the figures for the “Percent inhibition of liver CETP mRNA expression” value in series [3] (Cholesterol chow) and in series [3] (Normal chow) were 98% and 95%, respectively. In series [4], the “% inhibition” value came out at 100%.

For the origin of these results see patent US20130053430A1, “MODULATION OF CETP EXPRESSION” (Isis Pharmaceuticals, Inc., priority 2010, published 2013).
